Laboratory results from US11845770B2, “Ascaroside derivatives and methods of use” (California Institute of Technology, priority 2019, dated 2023).

Experiment: Plasma protein binding, HT-Dialysis (rat)
Assay type: in vitro ADME
Conditions: pH 7.4, dialysis 4 hours, read-out: percent unbound
Protocol: HT-Dialysis plate (Model HTD 96 b, Cat #1006) and the dialysis membrane (molecular weight cut off 12-14 KDa, Cat #1101) can be purchased from HT Dialysis LLC (Gales Ferry, CT).
The plasma was thawed under running cold tap water and centrifuged at 3220×g for 5 min to remove any clots. The pH value was checked and recorded. Only plasma within range of pH 7.0 to pH 8.0 was used. The dialysis membrane was pretreated according to the manufacturer's instructions. Briefly, the dialysis membrane strips were soaked in ultra-pure water at room temperature for approximately 1 hr. After that, each membrane strip that contained 2 membranes was separated and soaked in ethanol:water (20:80 v:v) for approximately 20 min. The membrane was rinsed and soaked for 20 min in ultra-pure water.
Aliquots of 50 μL loading plasma (matrix) containing compound 1 or warfarin in triplicate were transferred to the appropriate wells of a sample collection plate. The samples were matched with dialysis buffer to obtain a final volume of 100 μL with a volume ratio of plasma (matrix):dialysis buffer (1:1, v:v) in each well. […]
The % Unbound, % Bound, % Recovery and % Remaining were calculated using the following equations: % Unbound=100×F/T % Bound=100−% Unbound % Recovery=100×(F+T)/T0 • F=the compound 1 concentration on the receiver side of the membrane/Correction Factor. […]

fraction unbound at 4 h: 0.946
SMILES: C[C@H](CC/C=C/C(=O)O)O[C@@H]1O[C@@H](C)[C@H](O)C[C@H]1O [ascr #7, reference compound]
